Experimental data: PubChem BioAssay AID248 (DTP/NCI, 2004)
“And” between values parts separate entries of the source, which are not always exact repeats. Equal entries are not always repeated. Inconclusive results and toxic doses are left out. Rule as the data show it: active = T/C of 150% or more; inactive = T/C below 125%.

System: L1210 leukemia ip in BDF1 mice, survival T/C
Test: NCI In Vivo Anticancer Drug Screen. Data for tumor model L1210 Leukemia (intraperitoneal) in B6D2F1 (BDF1) mice
Conditions: endpoint: mean survival time, higher = longer survival
Method in brief: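 Read-out is survival time, reported as the treated-group measurement over the vehicle-control measurement.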

[1] = dose: 100.0 mg/kg/injection, schedule: Q01DX001 (ip), vehicle: saline
[2] = dose: 200.0 mg/kg/injection, schedule: Q01DX001 (ip), vehicle: saline
[3] = dose: 12.5 mg/kg/injection, schedule: Q04DX003 (ip), vehicle: Klucel (hydroxypropylcellulose) (HPC)
[4] = dose: 25.0 mg/kg/injection, schedule: Q04DX003 (ip), vehicle: Klucel (hydroxypropylcellulose) (HPC)
[5] = dose: 100.0 mg/kg/injection, schedule: Q04DX003 (ip), vehicle: saline with Tween-80
[6] = dose: 200.0 mg/kg/injection, schedule: Q04DX003 (ip), vehicle: saline with Tween-80
[7] = dose: 400.0 mg/kg/injection, schedule: Q04DX003 (ip), vehicle: saline with Tween-80
[8] = dose: 100.0 mg/kg/injection, schedule: Q01DX009 (ip), vehicle: saline with Tween-80
[9] = dose: 100.0 mg/kg/injection, schedule: Q04DX003 (ip), vehicle: saline
[10] = dose: 400.0 mg/kg/injection, schedule: Q01DX009 (ip), vehicle: saline with Tween-80
[11] = dose: 100.0 mg/kg/injection, schedule: Q04DX003 (ip), vehicle: Klucel (hydroxypropylcellulose) (HPC)
[12] = dose: 200.0 mg/kg/injection, schedule: Q04DX003 (ip), vehicle: Klucel (hydroxypropylcellulose) (HPC)
[13] = dose: 400.0 mg/kg/injection, schedule: Q04DX003 (ip), vehicle: Klucel (hydroxypropylcellulose) (HPC)

Measured: T/C

Cc1ccccc1Oc1ccccc1N
inactive: dose: 100.0 mg/kg/injection, schedule: Q01DX009 (sc), vehicle: olive oil, sesame oil, peanut oil 101 % of control | dose: 100.0 mg/kg/injection, schedule: Q04DX003 (sc), vehicle: olive oil, sesame oil, peanut oil 110 % of control | dose: 200.0 mg/kg/injection, schedule: Q01DX009 (sc), vehicle: olive oil, sesame oil, peanut oil 101 % of control | dose: 200.0 mg/kg/injection, schedule: Q04DX003 (sc), vehicle: olive oil, sesame oil, peanut oil 94 % of control | dose: 400.0 mg/kg/injection, schedule: Q01DX009 (sc), vehicle: olive oil, sesame oil, peanut oil 97 % of control | dose: 400.0 mg/kg/injection, schedule: Q04DX003 (sc), vehicle: olive oil, sesame oil, peanut oil 116 % of control

COc1cc2c(cc1OC)C(C(C)C)NCC2O (centres undefined)
inactive: [1] 98 % of control | [2] 96 % of control

CC1(C)CC(=O)CC(C)(C#N)C1 (centres undefined)
inactive: dose: 6.25 mg/kg/injection, schedule: Q01DX009 (ip), vehicle: Klucel (hydroxypropylcellulose) (HPC) 97 % of control | dose: 12.5 mg/kg/injection, schedule: Q01DX009 (ip), vehicle: Klucel (hydroxypropylcellulose) (HPC) 99 % of control | [3] 91 % of control | [4] 93 % of control

CC(C)(C)NC(=O)CCC(=O)O
inactive: dose: 75.0 mg/kg/injection, schedule: Q04DX002 (ip), vehicle: Klucel (hydroxypropylcellulose) (HPC) 89 % of control | dose: 150.0 mg/kg/injection, schedule: Q04DX002 (ip), vehicle: Klucel (hydroxypropylcellulose) (HPC) 92 % of control | dose: 300.0 mg/kg/injection, schedule: Q04DX002 (ip), vehicle: Klucel (hydroxypropylcellulose) (HPC) 100 % of control

CCCCOC(=O)/C(=C\c1cccc(OC)c1)NC(=O)c1ccccc1
inactive: dose: 50.0 mg/kg/injection, schedule: Q01DX009 (ip), vehicle: other 92 % of control | dose: 100.0 mg/kg/injection, schedule: Q01DX009 (ip), vehicle: other 89 % of control | dose: 200.0 mg/kg/injection, schedule: Q01DX009 (ip), vehicle: other 100 % of control and 91 % of control | dose: 400.0 mg/kg/injection, schedule: Q01DX009 (ip), vehicle: other 88 % of control

CN(C(=O)/C=C\c1ccccc1)c1ccccc1
inactive: dose: 100.0 mg/kg/injection, schedule: Q04DX002 (ip), vehicle: Klucel (hydroxypropylcellulose) (HPC) 104 % of control | dose: 200.0 mg/kg/injection, schedule: Q04DX002 (ip), vehicle: Klucel (hydroxypropylcellulose) (HPC) 104 % of control | dose: 400.0 mg/kg/injection, schedule: Q04DX002 (ip), vehicle: Klucel (hydroxypropylcellulose) (HPC) 104 % of control

CC(=O)N/C(=C\c1ccccc1)C(N)=O
inactive: [5] 91 % of control | [6] 97 % of control | [7] 96 % of control

NC(=O)C1(Cl)CC2C=CC1C2 (centres undefined)
inactive: dose: 25.0 mg/kg/injection, schedule: Q01DX009 (ip), vehicle: saline with Tween-80 90 % of control | dose: 25.0 mg/kg/injection, schedule: Q04DX003 (ip), vehicle: saline 100 % of control | dose: 50.0 mg/kg/injection, schedule: Q01DX009 (ip), vehicle: saline with Tween-80 95 % of control | dose: 50.0 mg/kg/injection, schedule: Q04DX003 (ip), vehicle: saline 99 % of control | [8] 97 % of control | [9] 110 % of control

Cc1c(Cl)cccc1NC(=O)NCCC(C)C
inactive: [8] 86 % of control | [5] 93 % of control | [6] 91 % of control | [10] 89 % of control | [7] 95 % of control

FC(F)(F)c1nnnn1Cc1ccccc1
inactive: dose: 50.0 mg/kg/injection, schedule: Q04DX002 (ip), vehicle: saline 93 % of control | dose: 100.0 mg/kg/injection, schedule: Q04DX002 (ip), vehicle: saline 101 % of control | dose: 200.0 mg/kg/injection, schedule: Q04DX002 (ip), vehicle: saline 101 % of control

Oc1ccccc1/C=N/n1cnnc1
inactive: [11] 98 % of control | [12] 100 % of control | [13] 100 % of control

CCC(COC(C)=O)(COC(C)=O)[N+](=O)[O-]
inactive: [11] 103 % of control | [12] 98 % of control | [13] 101 % of control

Nc1[nH]c(=S)[nH]c(=O)c1NC(=O)C1CC1
inactive: [9] 96 % of control | dose: 200.0 mg/kg/injection, schedule: Q04DX003 (ip), vehicle: saline 105 % of control | dose: 400.0 mg/kg/injection, schedule: Q04DX003 (ip), vehicle: saline 102 % of control

Cc1ccc(Cl)cc1NC(=O)Nc1cc(Cl)c(Cl)cc1C
inactive: dose: 50.0 mg/kg/injection, schedule: Q04DX003 (ip), vehicle: saline with Tween-80 94 % of control and 88 % of control | dose: 100.0 mg/kg/injection, schedule: Q01DX001 (ip), vehicle: saline with Tween-80 100 % of control | [8] 95 % of control and 97 % of control | dose: 100.0 mg/kg/injection, schedule: Q04DX002 (ip), vehicle: saline with Tween-80 95 % of control and 106 % of control | [5] 96 % of control | dose: 200.0 mg/kg/injection, schedule: Q01DX001 (ip), vehicle: saline with Tween-80 86 % of control | dose: 200.0 mg/kg/injection, schedule: Q01DX009 (ip), vehicle: saline with Tween-80 93 % of control and 97 % of control | dose: 200.0 mg/kg/injection, schedule: Q04DX002 (ip), vehicle: saline with Tween-80 97 % of control and 88 % of control | dose: 400.0 mg/kg/injection, schedule: Q01DX001 (ip), vehicle: saline with Tween-80 89 % of control | [10] 98 % of control and 105 % of control | dose: 400.0 mg/kg/injection, schedule: Q04DX002 (ip), vehicle: saline with Tween-80 101 % of control and 92 % of control | [7] 95 % of control and 88 % of control

Cc1ncccc1CO
inactive: dose: 100.0 mg/kg/injection, schedule: Q04DX002 (ip), vehicle: gum acacia 104 % of control | dose: 200.0 mg/kg/injection, schedule: Q04DX002 (ip), vehicle: gum acacia 90 % of control | dose: 400.0 mg/kg/injection, schedule: Q04DX002 (ip), vehicle: gum acacia 87 % of control

COc1cccc2c1C(=O)OC2=O
inactive: dose: 75.0 mg/kg/injection, schedule: Q01DX009 (ip), vehicle: Klucel (hydroxypropylcellulose) (HPC) 88 % of control | dose: 150.0 mg/kg/injection, schedule: Q01DX009 (ip), vehicle: Klucel (hydroxypropylcellulose) (HPC) 90 % of control | dose: 300.0 mg/kg/injection, schedule: Q01DX009 (ip), vehicle: Klucel (hydroxypropylcellulose) (HPC) 88 % of control

CC(C)(C)OC1C2C=CC1C=C2 (centres undefined)
inactive: [3] 93 % of control | [4] 91 % of control | dose: 50.0 mg/kg/injection, schedule: Q04DX003 (ip), vehicle: Klucel (hydroxypropylcellulose) (HPC) 91 % of control | [11] 95 % of control

CNC(=O)Oc1cccc(NC(=O)OC(C)(C)C)c1
inactive: [5] 101 % of control | [6] 94 % of control | [7] 95 % of control

c1ccc(SCCCCSc2ccccc2)cc1
inactive: dose: 75.0 mg/kg/injection, schedule: Q01DX009 (ip), vehicle: saline 107 % of control | dose: 75.0 mg/kg/injection, schedule: Q04DX003 (ip), vehicle: saline 95 % of control | dose: 150.0 mg/kg/injection, schedule: Q01DX009 (ip), vehicle: saline 90 % of control | dose: 150.0 mg/kg/injection, schedule: Q04DX003 (ip), vehicle: saline 100 % of control | dose: 300.0 mg/kg/injection, schedule: Q01DX009 (ip), vehicle: saline 93 % of control | dose: 300.0 mg/kg/injection, schedule: Q04DX003 (ip), vehicle: saline 97 % of control

CCC1(C)CCC2(C)C(CCC3C(C)(CO)CCCC32O)C1 (centres undefined)
inactive: dose: 12.5 mg/kg/injection, schedule: Q04DX002 (ip), vehicle: saline with Tween-80 96 % of control | dose: 25.0 mg/kg/injection, schedule: Q04DX002 (ip), vehicle: saline with Tween-80 96 % of control | dose: 50.0 mg/kg/injection, schedule: Q04DX002 (ip), vehicle: saline with Tween-80 96 % of control

CCCCCCc1cccc(C)n1
inactive: [1] 94 % of control | [2] 92 % of control

CCS(=O)(=O)c1ccc(NC(=O)Oc2ccccc2OC)cc1
inactive: dose: 100.0 mg/kg/injection, schedule: Q01DX001 (ip), vehicle: carboxymethylcellulose (CMC) 89 % of control | dose: 200.0 mg/kg/injection, schedule: Q01DX001 (ip), vehicle: carboxymethylcellulose (CMC) 100 % of control | dose: 400.0 mg/kg/injection, schedule: Q01DX001 (ip), vehicle: carboxymethylcellulose (CMC) 100 % of control

Nn1cnc2c(ncn2C2OC(CO)C(O)C2O)c1=O (centres undefined)
inactive: dose: 100.0 mg/kg/injection, schedule: Q01DX005 (ip), vehicle: saline 88 % of control | dose: 200.0 mg/kg/injection, schedule: Q01DX005 (ip), vehicle: saline 100 % of control
